Activity calls are given as the source filed them. The rule behind the calls is not given here.
Key:
[1] = Cmax in nu/nu mouse at 20 mg/kg, ip by LCMS analysis; format: ADME, organism-based; settings: in vivo
[2] = AUC (0 to infinity) in Sprague-Dawley rat at 4 mg/kg, iv administered as bolus dose by LCMS analysis; format: ADME, organism-based; settings: in vivo
[3] = test system: CA46; test: Inhibition of camptothecin induced DNA damage in mutated human CA46 cells assessed as increase in mitotic index by measuring histone H3 phosphorylation at S10 residue at 0.001 to 1 uM measured after 16 hrs presence of nocodazole by dot blot assay; format: functional, cell-based; settings: CA46, 16 h
[4] = test system: HT-29; test: Inhibition of cell cycle arrest in human HT-29 cells assessed as inhibition of gemcitabine induced S-phase arrest pretreated with gemcitabine followed by compound treatment and measured after 10 to 48 hrs by flow cytometry analysis; format: functional, cell-based; settings: time 10-48 hrs
[5] = test system: HT-29; test: Induction of apoptosis in gemcitabine induced human HT-29 cells assessed as apoptotic cell death measured after 10 hrs by PI staining based flow cytometry analysis (reference value: 0.6%); format: functional
[6] = test system: HT-29; test: Induction of apoptosis in gemcitabine induced human HT-29 cells assessed as apoptotic cell death measured after 24 hrs by PI staining based flow cytometry analysis (reference value: 0.7%); format: functional
[7] = test system: HT-29; test: Induction of apoptosis in gemcitabine induced human HT-29 cells assessed as apoptotic cell death measured after 32 hrs by PI staining based flow cytometry analysis (reference value: 1.2%); format: functional
[8] = test system: HT-29; test: Cytotoxicity in human HT-29 cells assessed as cell survival at 180 nM measured after 4 to 48 hrs by coulter counter method relative to control; format: functional; settings: time 4-48 hrs, read-out: Activity
[9] = test system: HT-29; test: Potentiation of gemcitabine induced cytotoxicity in human HT-29 cells assessed as cell survival at 360 nM measured after 4 to 48 hrs by coulter counter method relative to gemcitabine alone; format: functional; settings: time 4-48 hrs, read-out: Activity
[10] = test system: HT-29; test: Potentiation of gemcitabine induced cytotoxicity in human HT-29 cells assessed as cell survival at 540 nM measured after 4 to 48 hrs by coulter counter method relative to gemcitabine alone; format: functional; settings: time 4-48 hrs, read-out: Activity
[11] = test system: HT-29; test: Antiproliferative activity against human HT-29 cells deficit of p53 expression assessed as inhibition of cell growth measured after 96 hrs by MTT assay; format: functional, cell-based; settings: HT-29, 96 h
[12] = test system: MDA-MB-231; test: Antiproliferative activity against human MDA-MB-231 cells deficit of p53 expression assessed as inhibition of cell growth measured after 96 hrs by MTT assay; format: functional, cell-based; settings: MDA-MB-231, 96 h
[13] = test system: HT-29; test: Potentiation factor, ratio of IC50 for human HT-29 cells to IC50 for human HT-29 cells in presence of carboplatin; format: functional
[14] = test system: COLO 205; test: Potentiation factor, ratio of IC50 for human COLO 205 cells to IC50 for human COLO 205 cells in presence of carboplatin; format: functional
[15] = test system: COLO 205; test: Potentiation factor, ratio of IC50 for human COLO 205 cells to IC50 for human COLO 205 cells in presence of mytomicin-C; format: functional
[16] = test system: PC-3; test: Potentiation factor, ratio of IC50 for human PC-3 cells to IC50 for human PC-3 cells in presence of SN-38; format: functional
[17] = test system: PC-3; test: Potentiation factor, ratio of IC50 for human PC-3 cells to IC50 for human PC-3 cells in presence of doxorubicin; format: functional
[18] = test system: K562; test: Potentiation factor, ratio of IC50 for human K562 cells to IC50 for human K562 cells in presence of gemcitabine; format: functional
[19] = test system: K562; test: Potentiation factor, ratio of IC50 for human K562 cells to IC50 for human K562 cells in presence of SN-38; format: functional
[20] = test system: K562; test: Potentiation factor, ratio of IC50 for human K562 cells to IC50 for human K562 cells in presence of carboplatin; format: functional
[21] = test system: HT-29; test: Inhibition of gemcitabine induced cell cycle arrest in human HT-29 cells assessed as decrease in CDK1 phosphorylation level at 360 nM by immunoblot analysis; format: functional, cell-based; settings: time 2-24 hrs
[22] = test system: HT-29; test: Induction of DNA damage in gemcitabine induced human HT-29 cells assessed as increase in intensity of H2AX phosphorylation at 360 nM measured after 24 hrs by immunoblot analysis; format: functional, cell-based
[23] = test system: COLO 205; test: Antitumor activity against human COLO 205 cells xenografted in athymic nude mouse model assessed as tumor growth inhibition at 15 mg/kg, ip administered twice daily in presence of gemcitabine (Gemcitabine alone = 40%); format: functional; settings: read-out: TGI
[24] = test system: COLO 205; test: Antitumor activity against human COLO 205 cells xenografted in athymic nude mouse model assessed as tumor growth inhibition at 40 mg/kg, ip administered twice daily in presence of gemcitabine (Gemcitabine alone= 58%); format: functional; settings: read-out: TGI
[25] = test system: COLO 205; test: Antitumor activity against human COLO 205 cells xenografted in athymic nude mouse model assessed as tumor growth inhibition at 12 mg/kg, ip administered once daily in presence of gemcitabine (Gemcitabine alone= 58%); format: functional; settings: read-out: TGI
[26] = test system: COLO 205; test: Antitumor activity against human COLO 205 cells xenografted in athymic nude mouse model assessed as tumor growth inhibition at 4 mg/kg, ip administered twice daily in presence of gemcitabine (Gemcitabine alone= 58%); format: functional; settings: read-out: TGI
[27] = test system: COLO 205; test: Antitumor activity against human COLO 205 cells xenografted in athymic nude mouse model assessed as tumor growth inhibition at 4 mg/kg, ip administered once daily in presence of gemcitabine (Gemcitabine alone= 58%); format: functional; settings: read-out: TGI
[28] = test system: COLO 205; test: Antitumor activity against human COLO 205 cells xenografted in athymic nude mouse model assessed as tumor growth inhibition at 30 mg/kg, ip administered twice daily in presence of gemcitabine (Gemcitabine alone = 40%); format: functional; settings: read-out: TGI
[29] = test system: COLO 205; test: Antitumor activity against human COLO 205 cells xenografted in athymic nude mouse model assessed as potentiated tumor growth inhibition at 7.5 mg/kg, ip administered once daily in presence of gemcitabine relative to control; format: functional; settings: read-out: TGI
[30] = test system: COLO 205; test: Antitumor activity against human COLO 205 cells xenografted in athymic nude mouse model assessed as potentiated tumor growth inhibition at 15 mg/kg, ip administered once daily in presence of gemcitabine relative to control; format: functional; settings: read-out: TGI
[31] = test system: COLO 205; test: Antitumor activity against human COLO 205 cells xenografted in athymic nude mouse model assessed as tumor growth delay by measuring test to control tumor ratio at 12 mg/kg, ip administered once daily in presence of gemcitabine (Gemcitabine alone= 8%); format: functional
[32] = test system: COLO 205; test: Antitumor activity against human COLO 205 cells xenografted in athymic nude mouse model assessed as tumor growth delay by measuring test to control tumor ratio at 15 mg/kg, ip administered twice daily in presence of gemcitabine (Gemcitabine alone = 3%); format: functional
[33] = Toxicity in athymic nude mouse assessed as effect on body weight at 4 to 20 mg/kg, ip administered once daily in presence of gemcitabine; format: organism-based; settings: in vivo, dose 4-20 mg/kg
[34] = Toxicity in athymic nude mouse assessed as effect on body weight at 4 to 20 mg/kg, ip administered twice daily in presence of gemcitabine; format: organism-based; settings: in vivo, dose 4-20 mg/kg
[35] = test system: COLO 205; test: In vivo inhibition of Chk1 in athymic nude mouse xenografted with gemcitabine treated human COLO 205 cells assessed as increase in caspase-3 level by immunohistochemical analysis; format: functional, cell-based; settings: dose 15-30 mg/kg

Q: What does the source list for Cn1cc(-c2[nH]c3cc(NC(=O)[C@H](N)C4CCCCC4)cc4c3c2C=NNC4=O)cn1?
A: Cmax [1]: 1.29 µg/mL; AUC(0-inf) [2]: 5.72 µg·h/mL; EC50 [3]: 0.045 µM; inhibition [4]: Active; Activity [5]: 0.1%; Activity [6]: 5.2%; Activity [7]: 18.1%; viability at 0.18 µM [8]: 97%; viability at 0.36 µM [9]: 71%; viability at 0.54 µM [10]: 69%; IC50 [11]: 1.8 µM; IC50 [12]: 1.4 µM; PF50 [13]: 3; PF50 [14]: 5.4; PF50 [15]: 5.3; PF50 [16]: 1.3; PF50 [17]: 1.5; PF50 [18]: 5.6; PF50 [19]: 1.9; PF50 [20]: 1.9; inhibition [21]: Dose-Dependent Effect; Activity [22]: Active; inhibition in vivo at 15 mg/kg [23]: 66%; inhibition in vivo at 40 mg/kg [24]: 90%; inhibition in vivo at 12 mg/kg [25]: 68%; inhibition in vivo at 4 mg/kg [26]: 63%; inhibition in vivo at 4 mg/kg [27]: 58%; inhibition in vivo at 30 mg/kg [28]: 78%; inhibition in vivo at 7.5 mg/kg [29]: 23%; inhibition in vivo at 15 mg/kg [30]: 45%; T/C [31]: 8.5; T/C [32]: 11.25; Activity [33]: Non-Toxic; Activity [34]: Non-Toxic; inhibition [35]: Dose-Dependent Effect

— ChEMBL document CHEMBL5705884, “Breaching the DNA damage checkpoint via PF-00477736, a novel small-molecule inhibitor of checkpoint kinase 1” (Mol Cancer Ther, 2008)
